# Values quoted from earlier work as cited in patent US11260097B2, “Immunomodulatory composition to treat and/or prevent COVID-19 illness” (priority 2020, dated 2022).
# Tests used:
# [1] = in vivo
# [2] = high doses
compound,measurement,setting,value
glycophosphopeptical [AM3],"onset of clinical improvement in cough, sputum and shortness of breath",[1],3 days
"CC1=CC(=O)C(C(C)C)=CC1=O [thymoquinone, 2-isopropyl-5-methyl-1,4benzoquinone]",water solubility,,poor water solubility
same,toxicity,[2],toxicity at high doses
Nigellidine,solubility in acid media,,soluble in acid media
"C[C@@H]1O[C@@H](O[C@H]2[C@H](O[C@H]3CC[C@@]4(C)[C@@H](CC[C@]5(C)[C@@H]4CC=C4[C@@H]6CC(C)(C)CC[C@]6(C(=O)O)CC[C@]45C)[C@]3(C)CO)OC[C@H](O)[C@@H]2O)[C@H](O)[C@H](O)[C@H]1O [alpha-heridin, alpha-hederin]",water solubility,,water soluble
